Source: patent US20260021082A1, “EZH2 INHIBITION THERAPIES FOR THE TREATMENT OF AT-RICH INTERACTIVE DOMAIN-CONTAINING PROTEIN 1A (ARID1A) MUTATED CANCERS” (Constellation Pharmaceuticals, Inc., priority 2022, published 2026)
One block for each compound: values may come before it.

Assays:
[1] = system: ARID1A mutant HT1376 bladder cancer xenografts; assay: HT1376 xenograft tumor growth inhibition; format: in vivo, mice; details: ARID1A mutated HT1376 xenograft, 75 mg/kg QD; for tumor growth inhibition (TGI) compared to vehicle: day 27
Protocol: Data represented as mean tumor volume+SEM, with n=5 mice per group for all groups except 150 mg/kg, which had n=3. P-values calculated using 2-way ANOVA up to day 30, ns=p>0.05, *p<0.05. […]
Cell line derived xenograft tumor experiments were performed at WuXi AppTec, Shanghi, China. Patient derived xenograft experiments were performed at Crown BioScience Inc., Taicang Jiangsu Province, China, or Champions Oncology, Rockville, MD, US. All the procedures related to animal handling, care and the treatment in the xenograft studies were performed according to the guidelines approved by the Institutional Animal Care and Use Committee (IACUC) of WuXi AppTec or Crown BioScience Inc. following the guidance of the Association for Assessment and Accreditation of Laboratory Animal Care (AAALAC). The mice were kept in individual ventilation cages at constant temperature and humidity with 3-5 animals in each cage. Mice were checked daily for any effects of tumor growth and/or treatments on normal behavior such as mobility, food and water consumption, body weight gain/loss, eye, and any other abnormal effects. […] Animal body weight was monitored regularly as an indirect measurement of toxicity. Supplemented diet was provided after cell inoculation for all groups to help with body weight maintenance. If an animal lost >15% body weight, their treatments were suspended accordingly then resumed when body weight loss returned to <10%.
The HT1376 and HT1197 bladder cancer cell lines and Karpas-422 lymphoma cell line were expanded in vitro under routine subculturing procedures in the medium recommended by the supplier, harvested while in the exponential growth phase, and counted for tumor inoculation. For HT1376 and Karpas-422 studies, female CB17 SCID mice at 6-8 weeks of age were used for study initiation; for the HT1197 study, female Balb/c nude mice at 6-8 weeks of age were used. Each mouse was inoculated subcutaneously in the right flank with tumor cells in 0.2 ml PBS mixed with Matrigel (BD Biosciences); 5×10^6 cells per injection were used for HT1376 and Karpas-422 cell lines and 1×10^7 cells per injection for HT1197 cells. […] Mice undergoing extended dosing holidays due to body weight loss (>10 days, n=2 mice in the 150 mg/kg Compound 1 HT1376 group only), were censored from the study and not included in the data presented.
Tumor size was measured thrice weekly in two dimensions using a caliper, and the volume was expressed in mm3 using the formula: V=0.5a×b2 where a and b are the long and short diameters of the tumor, respectively. TGI was calculated for each group using the formula: TGI (%)=[1−(Ti−T0)/(Vi−V0)]×100; Ti is the average tumor volume of a treatment group on a certain day, T0 is the average tumor volume of the treatment group on the day of treatment start, Vi is the average tumor volume of the vehicle control group on the same day with Ti, and V0 is the average tumor volume of the vehicle group on the day of treatment start.
To further explore the potential dose dependence of Compound 1 on tumor growth inhibition in vivo, HT1376 xenograft studies were carried out using Compound 1 doses from 10 to 150 mg/kg QD orally once daily (PO, QD). […]

[2] = long-term cell viability assays in vitro, comparison of PRC2 inhibitors; format: cell-based
Protocol: (§1) Response of Compound 1 treatment relative to other EZH2, dual EZH1 and EZH2, or EED inhibitors was analyzed in vitro and in vivo.

[3] = pharmacokinetics in the ARID1A mutant HT1376 xenograft mouse model; format: in vivo
Protocol: as §1

[4] = CB17 SCID, mouse, in vivo, 75 mg/kg
[5] = Day 1, 75 mg/kg, HT1376 xenograft mouse, plasma

SMILES: COc1cc(C)[nH]c(=O)c1CNC(=O)c1c(C)n([C@H](C)C2CCN(CC(F)(F)F)CC2)c2ccccc12 [CPI-1205]
tumor growth inhibition (TGI) compared to vehicle [1]: 40%
GI50 [2]: 574 nM
Cmax [3, 4]: 50800 ng/mL
T1/2 [3, 4]: 1.24 h
Tmax [3, 4]: 0.50 h
AUClast (hg*ng/mL) ([3]; mouse, in vivo, 75 mg/kg): 59900 hg*ng/mL

SMILES: Cc1ncccc1-c1cnc(NCc2c(F)ccc3c2CCO3)n2cnnc12 [MAK683]
GI50 [2]: 73 nM
AUClast (hg*ng/mL) ([3]; mouse, in vivo, 75 mg/kg): 13100 hg*ng/mL
Cmax ([3]; mouse, in vivo, 75 mg/kg): 5660 ng/mL
T1/2 ([3]; mouse, in vivo, 75 mg/kg): 1.18 h
Tmax ([3]; mouse, in vivo, 75 mg/kg): 1.00 h

SMILES: COc1cc(C)[nH]c(=O)c1CN1CCc2c(Cl)cc([C@H](OC)C3COC3)c(Cl)c2C1=O [PF-06821497]
tumor growth inhibition (TGI) compared to vehicle [1]: 41%
GI50 [2]: ~5 nM
AUClast (hg*ng/mL) ([3]; mouse, in vivo, 75 mg/kg): 3380 hg*ng/mL
Cmax ([3]; mouse, in vivo, 75 mg/kg): 3740 ng/mL
T1/2 ([3]; mouse, in vivo, 75 mg/kg): 1.01 h
Tmax ([3]; mouse, in vivo, 75 mg/kg): 0.50 h

Second part, led by results:

AUClast (hg*ng/mL) [3, 5]: 23200 hg*ng/mL
Cmax [3, 5]: 9530 ng/mL
T1/2 [3, 5]: 1.43 h
Tmax [3, 5]: 0.50 h
SMILES: CCN(c1cc(-c2ccc(CN3CCOCC3)cc2)cc(C(=O)NCc2c(C)cc(C)[nH]c2=O)c1C)C1CCOCC1 [tazemetostat]
tumor growth inhibition (TGI) compared to vehicle [1]: 32%
GI50 [2]: 385 nM

AUClast (hg*ng/mL) [3, 5]: 7600 hg*ng/mL
Cmax [3, 5]: 3090 ng/mL
T1/2 [3, 5]: 3.00 h
Tmax [3, 5]: 1.33 h
SMILES: Cc1cc(C)c(CNC(=O)c2cc(Cl)c3c(c2C)O[C@@](C)([C@H]2CC[C@H](N(C)C)CC2)O3)c(=O)[nH]1 [valemetostat]
tumor volume course during treatment [1]: did not reach full regression
GI50 [2]: 18 nM
